What was measured:
Human Panelists = test: Line Scale sensory testing human taste test (Table C); format: in vivo; settings: 5 μM compound + 6% fructose/glucose, low sodium buffer pH 7.1
From the text: Purpose: To create a dose-response curve for perceived sweetness intensity of fructose-glucose concentrations. Test samples containing experimental compound are compared to this dose-response curve to determine equivalent sweetness intensity. This type of study requires a number of evaluations in order to obtain statistically significant data, so the test may be repeated with the same or additional panelists.
Overview: A group of eight or more panelists taste solutions including fructose-glucose at various concentrations, as well as the experimental compound, both with and without added fructose-glucose. Panelists rate sweetness intensity of all samples on an unstructured horizontal line scale, anchored from 0 to 10, where 0 equals no sweetness and 10 equals intense sweetness. Scores for sweetness intensity are averaged across panelists. Then using the average scores and/or equation of the line for the fructose-glucose dose-response curve, equivalent sweetness fructose-glucose concentrations are determined for the samples containing experimental compound.
Procedure: Eight or more subjects are used for the Line Scale tests. Subjects have been previously familiarized with the key attribute taste and are trained to use the 0 to 10 unstructured line scale. Subjects refrain from eating or drinking (except water) for at least 1 hour prior to the test. Subjects eat a cracker and rinse with water several times to clean the mouth.
Fructose-glucose solutions are provided at a wide range of concentrations, such as 0%, 2%, 4%, 6%, 8%, and 10% fructose-glucose, in order to create the dose-response curve. Samples containing experimental compound are prepared both alone and in a 6% fructose-glucose solution. All samples are made up in low sodium buffer pH 7.1. In order to aid dispersion, solutions can also be made up in 0.1% ethanol.
The solutions are dispensed in 20 ml volumes into 1 oz. sample cups and served to the subjects at room temperature. All samples are presented in randomized counterbalanced order to reduce response bias. Further, two sessions of testing may be used to check panel precision.
Subjects taste each sample individually and rate sweetness intensity on the line scale prior to tasting the next sample. All samples are expectorated. Subjects may retaste the samples but can only use the volume of sample given. Subjects must rinse with water between samples. Eating an unsalted cracker between sample pairs may be required depending on the samples tasted.
The scores for each sample are averaged across subjects and standard error is calculated. The dose-response curve is plotted graphically, and this may be used to ensure the panel is rating accurately; i.e. increasing the concentration of fructose-glucose should correspond to increased average scores for sweetness. A 2-way ANOVA (factors being samples and panelists) and multiple comparison tests (such as Tukey's Honestly Significant Difference test) can be used to determine differences among samples and/or panelists. A 3-way ANOVA, with sessions as the third factor, can be used to determine if there is any difference in the ratings between sessions.

tasters = test: Reduced sugar dry beverage mix (strawberry beverage) sensory evaluation; format: in vivo, human; settings: ⅔ sugared strawberry beverage + 1.3 ppm, scale 1 to 10
Experimental: 1000.00 g of the finished beverage was formulated. Compound 23 was diluted with maltodextrin (1:100) to form a sweetener concentrate composition prior to addition to the other dry beverage base ingredients. 50 g of the maltodextrin was placed on the bottom of a clean and dried mortar and 1.0000 g of compound 23 was added and slowly ground into the maltodextrin with the pestle. The remaining maltodextrin was added to a planetary mixer with a wire whip attachment (KITCHEN AIDE™ Mixer), and the contents of the mortar were placed into the mixer and the mixer was turned on to a slow speed (setting 3) and allowed to mix for an additional 10 minutes.
The contents of the glass container were re-mixed in the glass container before taking out aliquots of the dry diluted sweet enhancer. Using the KITCHEN AIDE™ Mixer with the wire whip attachment, the granulated ingredients of the beverage base (sugar, acid) were mixed slowly at speed 2 using the wire whip attachment for 3 minutes and 0.13 grams of the 1:100 diluted solid sweetener concentrate composition was added and mixed at speed 3 for 5 minutes. Calcium silicate was added and allowed to mix for another 5 minutes until the silicate was evenly dispersed. The dry flavor and dry color were added last and allowed to mix for another 10 minutes. A plastic spatula was used to scrape the inside of the mixing bowl to ensure complete recovery of the dry beverage base composition.
The water was placed in a stainless steel 3 L cylinder and a LIGHTNIN™ Mixer was set at 500 to 650 rpms using a 2.5 inch (6.35 cm) impeller with three straight blades. This was used to create a vortex in the water. The impeller blades were positioned at a 30 to 45° angle. The dry beverage base (53.525 grams) was slowly added to the vortex of the water and was mixed for an additional 5 minutes until all the sugar and acids had dissolved.
Samples of control sugared strawberry beverages containing sugar at the full level indicated above (50, 66.67, 80, 90, and 100% of full sugar), and the strawberry beverage comprising ⅔ sugar+1.3 ppm compound 23 were given to tasters in randomized order. Tasters used an anchored scale from 1 to 10 (1 being no sweetness, 10 being intense sweetness). Tasters were instructed to hold the beverage in their mouth for at least 5 seconds, expectorate the sample, and evaluate/rank the “peak” of sweetness intensity of their various samples. They were allowed to re-taste and re-position their samples on the physical line scale. Once satisfied with their rankings, they wrote down their code and corresponding rank score.

In the case of `CC(C)CNC(=O)C(C)(C)c1ccc(-c2cncc(C#N)c2)cc1` [Compound 23, 2-(4-(5-cyanopyridin-3-yl)phenyl)-N-isobutyl-2-methylpropanamide], the “Perceived Equivalent Sweet Solution” value (Human Panelists) is reported as “Equal to 10% fructose/ % fructose/glucose”, the “Sweet Score from Individual Tastors #1” value (tasters) is reported as 8 and the “Sweet Score from Individual Tastors #2” value (tasters) is reported as 7. The “Sweet Score from Individual Tastors #3” value (tasters) was 7, the “Sweet Score from Individual Tastors #4” value (tasters) was 8 and the “Sweet Score from Individual Tastors #5” value (tasters) was 7.5. The “Sweet Score from Individual Tastors #6” value (tasters) was 7, the “Sweet Score from Individual Tastors #7” value (tasters) was 8 and the “Sweet Score from Individual Tastors #8” value (tasters) was 8. The “Average Scores” value (tasters; mean of eight tasters) was 7.56.
